Common to all, as to assay type: functional, cell-based
Test [1] is described as follows: Antagonist activity at human alpha7nAChR Y93A mutant co-expressed with human Ric3 in tsA201 cells by FMP assay.
Test [2] in a line: Antagonist activity at human alpha7nAChR W149A mutant co-expressed with human Ric3 in tsA201 cells by FMP assay.
A short description of test [3]: Antagonist activity at human alpha7 nAChR W149Y mutant co-expressed with human Ric3 in tsA201 cells by FMP assay.
Test [4] in a line: Antagonist activity at human alpha-7 nAChR Y188A mutant coexpressed with human Ric3 in tsA201 cells by FMP assay.
Test [5] in a line: Antagonist activity at human alpha-7 nAChR Y195A mutant coexpressed with human Ric3 in tsA201 cells by FMP assay.

As usually defined, the pEC50 is the EC50 on a negative log10 scale, so that one unit is a factor of ten.

pEC50: −log10 of the molar value. Some results are limits rather than exact numbers.

Take `CC(=O)OCC[N+](C)(C)C` [ACETYLCHOLINE]: the pEC50 in test [1] (read-out: EC50) is 4.09; in test [2] (read-out: EC50), below 1.52; in test [3] (read-out: EC50), 2.82; in test [4] (read-out: EC50) it was 2.41; in test [5] (read-out: EC50) it was 3.59. Further, the EC50 was 81.3 µM in test [1] (read-out: pEC50 (converted)); above 31600 µM in test [2] (read-out: pEC50 (converted)); 1580 µM in test [3] (read-out: pEC50 (converted)); 3890 µM in test [4] (read-out: pEC50 (converted)); 257 µM in test [5] (read-out: pEC50 (converted)).
